Patent publication US6413935B1, “Induction of immune response against desired determinants” (priority 1993, dated 2002)
Like-named read-outs stand apart in the source and are kept apart here. Non-standard residues stand in square brackets, D forms with d. Residues, ends and D or L forms follow the SMILES beside them. Cha = N[C@@H](CC1CCCCC1)C(=O)O

How the values were obtained:
IE^k = assay type: binding, mouse; settings: read-out: Capacity to bind purified IE^k, IC50
IA^b = target: T1, IA^b (Mus musculus, UniProt P14434+P14483); assay: biochemical; assay type: binding
T1 construct: Various cell lines were used as sources of purified human and mouse class II molecules; endogenous in cells; host or cells: DB27.4
T1 sequence (P14434 24-256): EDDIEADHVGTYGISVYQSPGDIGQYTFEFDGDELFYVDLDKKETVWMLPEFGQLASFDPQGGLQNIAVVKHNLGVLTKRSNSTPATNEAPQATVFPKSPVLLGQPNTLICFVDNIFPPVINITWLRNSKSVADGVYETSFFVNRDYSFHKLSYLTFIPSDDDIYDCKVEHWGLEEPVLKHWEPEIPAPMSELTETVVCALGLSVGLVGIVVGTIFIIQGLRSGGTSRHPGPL
T1 sequence (P14483 28-265): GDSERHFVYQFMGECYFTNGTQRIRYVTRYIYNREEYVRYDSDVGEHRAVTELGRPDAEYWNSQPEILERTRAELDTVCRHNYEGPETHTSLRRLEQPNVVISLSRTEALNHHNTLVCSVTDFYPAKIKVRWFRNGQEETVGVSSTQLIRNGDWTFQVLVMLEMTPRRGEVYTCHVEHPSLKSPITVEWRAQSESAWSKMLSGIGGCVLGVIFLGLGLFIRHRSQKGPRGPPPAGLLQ

IA^d = target: T2, IA^d (Mus musculus, UniProt P01921+P04228); assay: biochemical; assay type: binding; settings: Table III; read-out: Capacity to bind purified IA^d, IC50
T2 construct: Various cell lines were used as sources of purified human and mouse class II molecules; endogenous in cells; host or cells: A20
T2 sequence (P04228 24-256): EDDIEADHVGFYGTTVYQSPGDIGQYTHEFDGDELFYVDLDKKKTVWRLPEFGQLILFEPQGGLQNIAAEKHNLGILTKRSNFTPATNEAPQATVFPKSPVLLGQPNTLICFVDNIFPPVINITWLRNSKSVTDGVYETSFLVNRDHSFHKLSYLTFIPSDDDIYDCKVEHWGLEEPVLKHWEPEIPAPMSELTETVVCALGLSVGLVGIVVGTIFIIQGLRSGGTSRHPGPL
T2 sequence (P01921 28-265): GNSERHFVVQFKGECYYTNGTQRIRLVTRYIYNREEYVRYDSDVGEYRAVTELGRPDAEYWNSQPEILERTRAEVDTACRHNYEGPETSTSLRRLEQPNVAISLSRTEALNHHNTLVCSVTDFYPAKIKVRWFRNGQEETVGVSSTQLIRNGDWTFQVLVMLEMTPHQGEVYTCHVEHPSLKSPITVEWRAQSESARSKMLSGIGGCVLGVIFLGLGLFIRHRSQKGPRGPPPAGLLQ

IE^d = target: T3, IE^d (Mus musculus, UniProt P01904+P01915); assay: biochemical; assay type: binding
T3 construct: Various cell lines were used as sources of purified human and mouse class II molecules; endogenous in cells; host or cells: A20
T3 sequence (P01904 26-255): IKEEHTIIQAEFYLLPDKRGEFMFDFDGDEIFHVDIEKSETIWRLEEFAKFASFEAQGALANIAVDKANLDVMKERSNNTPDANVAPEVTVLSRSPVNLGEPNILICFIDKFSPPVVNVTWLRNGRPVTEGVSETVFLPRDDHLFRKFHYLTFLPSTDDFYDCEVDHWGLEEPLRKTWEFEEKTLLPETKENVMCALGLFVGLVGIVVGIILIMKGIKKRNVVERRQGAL
T3 sequence (P01915 27-264 limits assumed): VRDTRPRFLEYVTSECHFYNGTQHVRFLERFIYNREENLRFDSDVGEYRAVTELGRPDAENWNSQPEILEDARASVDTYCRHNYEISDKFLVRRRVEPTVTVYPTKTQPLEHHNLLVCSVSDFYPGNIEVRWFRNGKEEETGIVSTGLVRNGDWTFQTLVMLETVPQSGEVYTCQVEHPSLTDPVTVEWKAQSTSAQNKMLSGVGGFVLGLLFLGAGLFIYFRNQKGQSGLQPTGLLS

IA^s = target: T4, IA^s (Mus musculus, UniProt P06345+P14437); assay: biochemical; assay type: binding; settings: Table III; read-out: Capacity to bind purified IA^s, IC50
T4 construct: Various cell lines were used as sources of purified human and mouse class II molecules; endogenous in cells; host or cells: LS102.9
T4 sequence (P14437 1-233): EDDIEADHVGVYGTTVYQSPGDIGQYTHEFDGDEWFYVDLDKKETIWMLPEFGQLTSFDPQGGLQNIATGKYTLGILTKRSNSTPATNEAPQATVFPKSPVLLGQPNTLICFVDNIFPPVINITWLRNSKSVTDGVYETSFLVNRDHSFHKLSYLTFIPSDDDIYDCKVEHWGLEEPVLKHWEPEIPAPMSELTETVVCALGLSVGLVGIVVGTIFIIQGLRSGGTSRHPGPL
T4 sequence (P06345 28-263): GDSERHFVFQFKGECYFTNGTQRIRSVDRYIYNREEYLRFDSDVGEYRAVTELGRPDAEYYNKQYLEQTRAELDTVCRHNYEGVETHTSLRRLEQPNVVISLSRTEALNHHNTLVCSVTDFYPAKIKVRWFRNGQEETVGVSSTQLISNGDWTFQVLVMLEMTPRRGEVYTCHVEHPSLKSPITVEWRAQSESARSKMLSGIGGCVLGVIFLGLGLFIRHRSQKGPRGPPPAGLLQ

IA^k = target: T5, IA^k (Mus musculus, UniProt P01910+P06343); assay: biochemical; assay type: binding; settings: Table III; read-out: Capacity to bind purified IA^k, IC50
T5 construct: Various cell lines were used as sources of purified human and mouse class II molecules; endogenous in cells; host or cells: CH12
T5 sequence (P01910 24-256): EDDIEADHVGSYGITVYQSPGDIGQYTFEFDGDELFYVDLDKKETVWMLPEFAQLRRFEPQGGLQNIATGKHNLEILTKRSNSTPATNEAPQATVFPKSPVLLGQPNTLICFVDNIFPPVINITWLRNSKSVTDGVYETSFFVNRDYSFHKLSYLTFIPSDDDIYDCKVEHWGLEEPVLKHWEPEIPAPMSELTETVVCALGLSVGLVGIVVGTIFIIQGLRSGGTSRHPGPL
T5 sequence (P06343 28-263): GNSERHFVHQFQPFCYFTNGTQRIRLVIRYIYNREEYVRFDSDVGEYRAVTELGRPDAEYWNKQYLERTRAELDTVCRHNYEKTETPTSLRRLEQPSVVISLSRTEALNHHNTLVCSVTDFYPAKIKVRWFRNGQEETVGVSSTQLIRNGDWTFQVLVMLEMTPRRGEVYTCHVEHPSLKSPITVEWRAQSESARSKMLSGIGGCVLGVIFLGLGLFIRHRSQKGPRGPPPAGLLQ

DR7 = settings: for IC50: read-out: PADRE Class II Binding Affinities DR7
DRw53 = DRw53 (Homo sapiens, UniProt P01903+P13762)
Chain of DRw53 (P01903 26-254): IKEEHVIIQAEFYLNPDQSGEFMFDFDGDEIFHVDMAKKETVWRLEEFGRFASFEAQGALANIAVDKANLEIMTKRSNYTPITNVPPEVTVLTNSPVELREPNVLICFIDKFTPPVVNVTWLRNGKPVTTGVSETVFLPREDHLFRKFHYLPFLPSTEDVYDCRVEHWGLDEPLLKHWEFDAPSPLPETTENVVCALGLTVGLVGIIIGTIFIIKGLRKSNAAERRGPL
Chain of DRw53 (P13762 30-266): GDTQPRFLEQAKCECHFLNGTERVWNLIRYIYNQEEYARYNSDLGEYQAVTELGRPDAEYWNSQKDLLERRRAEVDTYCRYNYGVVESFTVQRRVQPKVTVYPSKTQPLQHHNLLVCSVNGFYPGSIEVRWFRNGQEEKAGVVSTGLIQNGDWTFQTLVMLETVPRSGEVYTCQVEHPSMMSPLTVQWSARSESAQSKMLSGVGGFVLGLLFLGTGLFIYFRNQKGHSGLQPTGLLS

DR3 = DR3 (Homo sapiens, UniProt P01903+P01911, A100K/A102G/A103R/A169T/F55Y/I96L/K41T/L162R/M171V/P40S/Q125H/Q178H/Q39Y/R42S/S66N/T106N/T262R/W38E/Y61H)
Chain of DR3 (P01903 26-254): as the sequence (P01903 26-254) above
Chain of DR3 (P01911 30-266 with the stated changes): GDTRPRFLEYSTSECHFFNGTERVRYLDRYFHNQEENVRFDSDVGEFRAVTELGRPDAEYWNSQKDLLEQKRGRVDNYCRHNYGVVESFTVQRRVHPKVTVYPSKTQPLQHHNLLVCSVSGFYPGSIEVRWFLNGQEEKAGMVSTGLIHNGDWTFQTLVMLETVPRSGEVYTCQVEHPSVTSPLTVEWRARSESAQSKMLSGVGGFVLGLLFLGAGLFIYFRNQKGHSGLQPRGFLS

human PBMC T cell lines = assay type: cell-based
C57BL/6J (H-2^b+) mice = settings: mouse, in vivo
[1] = Table III, read-out: Capacity to bind purified IE^d, IC50
[2] = read-out: PADRE Class II Binding Affinities DR5, Table VIII A
[3] = read-out: PADRE Class II Binding Affinities, Table VIII A

In the case of CC[C@H](C)[C@H](NC(=O)[C@@H]1CCCN1C(=O)[C@H](C)NC(=O)[C@H](CC(N)=O)NC(=O)[C@@H]1CCCN1C(=O)[C@@H]1CCCN1C(=O)[C@H](CCCNC(=N)N)NC(=O)[C@H](Cc1ccc(O)cc1)NC(=O)[C@H](C)NC(=O)[C@@H]1CCCN1C(=O)[C@@H]1CCCN1C(=O)[C@@H](N)[C@@H](C)O)C(=O)N[C@@H](CC(C)C)C(=O)O [HBVc 128-140, reference compound], the IC50 (IE^k; Table III) is reported as > 10000 nM.

For CC[C@H](C)[C@H](NC(=O)CNC(=O)[C@H](Cc1ccc(O)cc1)NC(=O)[C@H](CC(=O)O)NC(=O)[C@@H](NC(=O)[C@H](CO)NC(=O)CNC(=O)[C@H](CC(=O)O)NC(=O)[C@@H](NC(=O)[C@@H](N)CC(N)=O)[C@@H](C)O)[C@@H](C)O)C(=O)N[C@@H](CC(C)C)C(=O)N[C@@H](CCC(N)=O)C(=O)N[C@H](C(=O)N[C@@H](CC(N)=O)C(=O)N[C@@H](CO)C(=O)N[C@@H](CCCNC(=N)N)C(=O)O)[C@@H](C)CC [HEL46-61], the IC50 (IA^b) was 7000 nM, the IC50 (IA^d) was 1220 nM and the IC50 (IE^d; [1]) was 8500 nM. The IC50 (IA^s) was > 10000 nM and the IC50 (IA^k) was 20 nM.

With CC[C@H](C)[C@H](NC(=O)[C@H](C)NC(=O)[C@H](CCCCN)NC(=O)[C@H](CC(C)C)NC(=O)[C@H](CCCNC(=N)N)NC(=O)[C@H](CCCNC(=N)N)NC(=O)[C@H](C)NC(=O)[C@H](CC(=O)O)NC(=O)[C@H](CCC(=O)O)NC(=O)[C@H](CC(C)C)NC(=O)[C@@H](N)Cc1ccc(O)cc1)C(=O)N[C@@H](Cc1ccc(O)cc1)C(=O)N[C@@H](CCC(=O)O)C(=O)N[C@@H](CCCCN)C(=O)N[C@@H](CCCCN)C(=O)N[C@@H](CCCCN)C(=O)O [Iambda rep 12-26] the IC50 (IA^b) was > 10000 nM, the IC50 (IA^d) was 1100 nM and the IC50 (IE^d; Allele IEd, read-out: Avg. IC50 of assay standard) was 170 nM. The IC50 (IA^s) was > 10000 nM and the IC50 (IA^k) was > 10000 nM.

With CC(C)C[C@H](NC(=O)[C@H](Cc1c[nH]c2ccccc12)NC(=O)[C@H](CCCCN)NC(=O)CNC(=O)[C@H](CC(C)C)NC(=O)[C@H](CO)NC(=O)[C@@H](N)Cc1c[nH]cn1)C(=O)NCC(=O)N[C@@H](Cc1c[nH]cn1)C(=O)N1CCC[C@H]1C(=O)N[C@@H](CC(=O)O)C(=O)N[C@@H](CCCCN)C(=O)N[C@@H](Cc1ccccc1)C(=O)O [PLP 139-151] the IC50 (IA^b) was > 3100 nM, the IC50 (IA^d) was > 10000 nM and the IC50 (IE^d; [1]) was > 10000 nM. The IC50 (IA^s) was 86 nM and the IC50 (IA^k) was > 10000 nM.

In the case of CC(C)C[C@H](NC(=O)[C@@H](NC(=O)[C@H](C)NC(=O)[C@H](CCC(=O)O)NC(=O)[C@H](C)NC(=O)[C@H](C)NC(=O)[C@H](CC1CCCCC1)NC(=O)[C@H](C)NC(=O)[C@@H](C)N)[C@@H](C)O)C(=O)N[C@@H](CCCCN)C(=O)N[C@@H](C)C(=O)N[C@@H](C)C(=O)N[C@H](C)C(N)=O [Peptide 906.19], the IC50 (DR5; read-out: PADRE Class II Binding Affinities DR5) is reported as 6.5 nM, the “PADRE Class II Binding Affinities DR7” value (DR7) is reported as “DR7 reactivity was lost” and the IC50 (DR7) is reported as 250000 nM. For the same compound, the “Increase in DR53 reactivity” value (DRw53) was 20 fold.

For CC(C)C[C@H](NC(=O)[C@@H](NC(=O)[C@H](C)NC(=O)[C@H](CCC(N)=O)NC(=O)[C@H](C)NC(=O)[C@H](C)NC(=O)[C@H](CC1CCCCC1)NC(=O)[C@H](C)NC(=O)[C@@H](C)N)[C@@H](C)O)C(=O)N[C@@H](CCCCN)C(=O)N[C@@H](C)C(=O)N[C@@H](C)C(=O)N[C@H](C)C(N)=O [Peptide 906.20] (H-[dA]A[Cha]AAQATLKAA[dA]-NH2; N-terminus and C-terminus assumed), the “PADRE Class II Binding Affinities DR3” value (DR3; Table VIII A) was “loss of DR3 binding”, the IC50 (DR5; [2]) was 4.1 nM and the IC50 (DR7; Table VIII A) was 2500 nM. The “Loss of DR7 binding reactivity” value (DR7; relative to parent 760.57) was 30 fold and the IC50 (DQ3.1; [3]) was 652 nM.

With CC(C)C[C@H](NC(=O)[C@@H](NC(=O)[C@H](C)NC(=O)[C@H](C)NC(=O)[C@H](C)NC(=O)[C@H](C)NC(=O)[C@H](CC1CCCCC1)NC(=O)[C@H](C)NC(=O)[C@@H](C)N)[C@@H](C)O)C(=O)N[C@@H](CCCCN)C(=O)N[C@@H](C)C(=O)N[C@@H](Cc1ccccc1)C(=O)N[C@H](C)C(N)=O [Peptide 906.50] (H-[dA]A[Cha]AAAATLKAF[dA]-NH2; N-terminus and C-terminus assumed) the “Increase in DR3 reactivity” value (DR3; relative to parent 760.57) was 8 fold, the IC50 (DR5; [2]) was 9.5 nM and the IC50 (DR7; Table VIII A) was 73.5 nM. The “Increase in DR53 reactivity” value (DRw53; relative to parent 760.57) was 40 fold and the IC50 (DQ3.1; [3]) was 20 nM.

CC(C)C[C@H](NC(=O)[C@@H](NC(=O)[C@H](Cc1c[nH]c2ccccc12)NC(=O)[C@H](C)NC(=O)[C@H](C)NC(=O)[C@@H](NC(=O)[C@H](CC1CCCCC1)NC(=O)[C@H](CCCCN)NC(=O)[C@@H](C)N)C(C)C)[C@@H](C)O)C(=O)N[C@@H](CCCCN)C(=O)N[C@@H](C)C(=O)N[C@@H](C)C(=O)N[C@H](C)C(N)=O [Peptide 965.10] was tested, and the IC50 (IE^k; Table III) was 326 nM, the “Donors with significant (>10,000 cpm) T cell response / donors tested, second stimulation” value (human PBMC T cell lines) was 9/12 and all 5 individuals and the “Donors with significant (>10,000 cpm) T cell response / donors tested, third stimulation” value (human PBMC T cell lines) was 11 of 12 and all 5 individuals. The Effective immunizing dose (C57BL/6J (H-2^b+) mice) was 0.05 μg/mouse.

aKFVAAWTLKAAa [Peptide 1024.03] gave an IC50 (IE^k) of 3500 nM, an Effective immunizing dose (C57BL/6J (H-2^b+) mice) of 0.05 μg/mouse and an IC50 (DR5; read-out: Binding capacity DR5, IC50) of 18 nM. For the same compound, the IC50 (DQ3.1; read-out: Capacity to bind purified DQ3.1, IC50) was 23 nM.
